This is an account of results in patent publication US20220112192A1, “COMPOUNDS AND METHODS OF USE THEREOF FOR TREATMENT OF CANCER” (ARAXES PHARMA LLC, priority 2018, published 2022).

The target in the test is T1, KRAS G12C 1-169, his-tagged protein, GDP-loaded (Homo sapiens, UniProt P01116, G12C).
T1 construct: KRAS G12C 1-169, his-tagged protein, GDP-loaded
In words: Biochemical assay: covalent modification of KRAS G12C measured by mass spectrometry. The format is binding. The conditions noted are these: modification of KRAS G12C at 10 minutes. As to the method:
Test compounds were prepared as 10 mM stock solutions in DMSO (Fisher cat #BP-231-100). KRAS G12C 1-169, his-tagged protein, GDP-loaded was diluted to 2 μM or 0.5 μM in buffer (20 mM Hepes, 150 mM NaCl, 1 mM MgCl2).
Compounds were tested for activity as follows: Compounds were diluted to 50× final test concentration in DMSO in 96-well storage plates. Compound stock solutions were vortexed before use and observed carefully for any sign of precipitation. Dilutions were as follow: • For 100 μM final compound concentration, compounds were diluted to 5000 μM (5 μL 10 mM compound stock+5 μL DMSO and mixed well by pipetting. • For 30 μM final compound concentration, compounds were diluted to 1500 μM (3 μL 10 mM compound stock+17 μL DMSO) and mixed well by pipetting. • For 10 μM final compound concentration, compounds were diluted to 500 μM (2 μL 10 mM compound stock+38 μL DMSO) and mixed well by pipetting. 49 μL of the stock protein solution was added to each well of a 96-well PCR plate (Fisher cat #1423027). 1 μL of the diluted 50× compounds were added to appropriate wells in the PCR plate using 12-channel pipettor. Reactions were mixed carefully and thoroughly by pipetting up/down with a 200 μL multi-channel pipettor. The plate was sealed well with aluminum plate seal, and stored in drawer at room temperature for 10 minutes, 30 minutes, 2 hours or 24 hours. 5 μL of 2% formic acid (Fisher cat #A117) in de-ionized H2O was then added to each well followed by mixing with a pipette. The plate was then resealed with aluminum seal and stored on dry ice until analyzed as described below.
The above described assays are analyzed by mass spectrometry according to one of the following two procedures:
The MS instrument was set to positive polarity, 2 GHz resolution, and low mass (1700) mode and allowed to equilibrate for 30 minutes. The instrument was then calibrated, switched to acquisition mode and the appropriate method loaded.
After another 30 minute equilibration time, a blank batch (i.e., buffer) was run to ensure equipment is operating properly. The samples are thawed at 37° C. for 10 minutes, briefly centrifuged, and transferred to the bench top. Wells A1 and H12 were spiked with 1 μL 500 μM internal standard peptide, and the plates centrifuged at 2000×g for 5 minutes. The method was then run and masses of each individual well recorded.
The masses (for which integration data is desired) for each well were pasted into the platemap and exported from the analysis. Masses for the internal standards were exported as well. The data at 50 ppm was extracted for the +19 charge state, and identity of well A1 was assigned using the internal standard spike and integrated. Peak data was exported as a TOF list and the above steps are repeated individually, for the +20, 21, 22, 23, 24, and 25 charge states.
? -Exactive Assay:
The masses and peak intensities of KRAS G12C protein species were measured using a Dionex RSLCnano system (Thermo Scientific) connected to a Q Exactive Plus mass spectrometer (Thermo Scientific). […] of sample was each loaded onto a Aeris™ […] WIDEPORE C4 200 Å, LC Column 50×2.1 mm column maintained at 40° C. at a flow rate of 600 μL/min with 20% Solvent A (0.1% formic acid in H2O) and […] (0.1% formic acid in acetonitrile). The liquid chromatography conditions were 20% solvent B for 1 minute, 20% to 60% solvent B for 1.5 minutes, 60% to 90% solvent for 0.5 minute, 90% solvent B for 0.2 minute, 90% to 20% solvent B for 0.2 minute, and then equilibrated for 1.6 minutes before the following sample injection. The flow rate was maintained at 600 μL/min throughout sample analysis.
The mass spectrometer was operated in profile mode at a resolution of 17500, 5 microscans, using 50 msec max injection time and an AGC target of 1×10^6, and a full mass range from 800-1850 m/z was recorded. The HCD trapping gas was optimized for maximum sensitivity for intact proteins. […]
In the case of “1-(6-(6-chloro-7-(5-methyl-1H-indazol-4-yl)-2-(((S)-1-methylpyrrolidin-2-yl)methoxy)-8-(2,2,2-trifluoroethoxy)quinazolin-4-yl)-2,6-diazaspiro[3.4]octan-2-yl)prop-2-en-1-one [Compound I-75]”, the Binding % result is reported as “+++ (+++ indicates binding activity greater than 85% at 10 minutes)”.
Consider `C=CC(=O)N1CC2(CCN(c3nc(OC[C@@H]4CCCN4C)nc4c(F)c(-c5c(C)ccc6[nH]ncc56)c(Cl)cc34)CC2)C1` [Compound I-6, 1-(7-(6-chloro-8-fluoro-7-(5-methyl-1H-indazol-4-yl)-2-(((S)-1-methylpyrrolidin-2-yl)methoxy)quinazolin-4-yl)-2,7-diazaspiro[3.5]nonan-2-yl)prop-2-en-1-one], for which the Binding % result was “+++ (+++ indicates binding activity greater than 85% at 10 minutes)”.
Regarding `C=CC(=O)C1CC2(CCN1c1nc(=O)n(-c3ccccc3C(C)C)c3cc(-c4c(C)ccc5[nH]ncc45)c(Cl)cc13)CNC2` (single isomer, unassigned) [II-5a, 4-(6-acryloyl-2,7-diazaspiro[3.5]nonan-7-yl)-6-chloro-1-(6-isopropylphenyl)-7-(5-methyl-1H-indazol-4-yl)quinazolin-2(1H)-one], the Binding % result is “+ (+ indicates binding activity greater than 0% and up to 50% at 10 minutes)”.
Turning to `C=CC(=O)N1CC2(CCN(c3nc(OC[C@@H]4CCCN4C)nc4c(F)c(-c5c(C)ccc6cnn(C)c56)c(Cl)cc34)CC2)C1` [Compound I-2, 1-(7-(6-chloro-7-(1,6-dimethyl-1H-indazol-7-yl)-8-fluoro-2-(((S)-1-methylpyrrolidin-2-yl)methoxy)quinazolin-4-yl)-2,7-diazaspiro[3.5]nonan-2-yl)prop-2-en-1-one], the Binding % result is listed as “+++ (+++ indicates binding activity greater than 85% at 10 minutes)”.
Take “1-(6-(7-(5-methyl-1H-indazol-4-yl)-2-(((S)-1-methylpyrrolidin-2-yl)methoxy)-8-(2,2,2-trifluoroethoxy)-6-vinylquinazolin-4-yl)-2,6-diazaspiro[3.4]octan-2-yl)prop-2-en-1-one [Compound I-74]”: the Binding % entry was “++ (++ indicates binding activity from 50 to 85% at 10 minutes)”.
As to `C=CC(=O)N1CC2(CCN(c3nc(OC[C@@H]4CCCN4C)nc4c(F)c(-c5c(C)ccc6cnn(C)c56)c(Cl)cc34)C2)C1` [Compound I-1, 1-(6-(6-chloro-7-(1,6-dimethyl-1H-indazol-7-yl)-8-fluoro-2-(((S)-1-methylpyrrolidin-2-yl)methoxy)quinazolin-4-yl)-2,6-diazaspiro[3.4]octan-2-yl)prop-2-en-1-one], the Binding % result was “++ (++ indicates binding activity from 50 to 85% at 10 minutes)”.
Regarding `C=CC(=O)C1CC2(CCN1c1nc(=O)n(-c3ccccc3C(C)C)c3cc(-c4c(C)ccc5[nH]ncc45)c(Cl)cc13)CNC2` (single isomer, unassigned) [II-5b, 4-(6-acryloyl-2,7-diazaspiro[3.5]nonan-7-yl)-6-chloro-1-(6-isopropylphenyl)-7-(5-methyl-1H-indazol-4-yl)quinazolin-2(1H)-one], the Binding % entry is on record as “++ (++ indicates binding activity from 50 to 85% at 10 minutes)”.
Regarding `C=CC(=O)N1CC2(CCN(c3c(Cl)c(-c4c(C)ccc5[nH]ncc45)c(OCC(F)(F)F)c4nc(OC[C@@H]5CCCN5C)ncc34)C(C)C2)C1` (stereo partly drawn) [Compound I-76, 1-(7-(6-chloro-7-(5-methyl-1H-indazol-4-yl)-2-(((S)-1-methylpyrrolidin-2-yl)methoxy)-8-(2,2,2-trifluoroethoxy)quinazolin-5-yl)-6-methyl-2,7-diazaspiro[3.5]nonan-2-yl)prop-2-en-1-one], the Binding % result was “++ (++ indicates binding activity from 50 to 85% at 10 minutes)”.
As to `C=CC(=O)N1CC2(CCN(c3nc(OC[C@@H]4CCCN4C)nc4c(F)c(-c5c(C)ccc6cn[nH]c56)c(Cl)cc34)CC2)C1` [Compound I-3, 1-(7-(6-chloro-8-fluoro-7-(6-methyl-1H-indazol-7-yl)-2-(((S)-1-methylpyrrolidin-2-yl)methoxy)quinazolin-4-yl)-2,7-diazaspiro[3.5]nonan-2-yl)prop-2-en-1-one], the Binding % entry was “+++ (+++ indicates binding activity greater than 85% at 10 minutes)”.
